Source: patent EP0694299B1, “The use of( a) bicycloheptane derivative(s)” (EGIS GYOGYSZERGYAR RT., priority 1994, dated 1996)
Where two headings read alike, the source gives them in different places.

System: cholecyst contraction induced by yolk
Assay: Inhibition of yolk-induced gallbladder (cholecyst) mass decrease in mice
Format: in vivo, male mice from the strain NMRI
Details: Mus musculus, po
Method: The effect of the bicycloheptane derivatives used according to the invention is verified on the following test. Known spasmolytics 1-[3',4'-di-(ethoxy)-benzyliden]-6,7-di-- [ethoxy] -1,2,3,4-terra-[hydro] -isoquinoline {drotaverine} and 1- [3',4'-di-(methoxy)-benzyl]-6,7-di-[methoxy] -isoquinoline {papaverine} are employed for comparison. (These spasmolytics are most often used in the therapeutical practice).
The tests were performed on male mice from the strain NMRI in groups consisting of 8 to 12 animals. At the beginning of the test, the animals were weighing 20 to 30 g.
The animals were starved for 24 hours before beginning the first treatment, however, they were allowed to consume water ad libitum. The compounds to be tested and the carrier (0.4% solution of methyl cellulose) were administered perorally in a volume of 10 ml/kg.
45 minutes after this treatment, an emulsion of 30% of yolk in 0.4% methyl cellulose solution was administered perorally. Each mouse consumed 0.5 ml of the emulsion. The animals of the control group consumed 0.5 ml of the carrier i.e. 0.4% methyl cellulose solution.
After 15 minutes, cervicalis dislocatio was employed, the gallbladders were removed and weighed, one by one. The effect of the compounds tested was given as the inhibition of the cholecyst mass decrease induced by yolk, in percentage. […] Table

[1] = dose causing 50% inhibition of the cholecyst mass decrease induced by yolk, p.o. 45 min before 30% yolk emulsion, gallbladders weighed 15 min later, linear regression, read-out: ID50 p.o.

Structure (SMILES)	ED50 [1] [mg/kg]	ED50 (read-out: ID50 p.o. in mg/kg) [mg/kg]
CN(C)CCO[C@]1(c2ccccc2)C[C@H]2CC[C@]1(C)C2(C)C.O=C(O)/C=C/C(=O)O [(1R,2S,4R)-(-)-2-[Phenyl]-2-[2'-(dimethylamino)-ethoxy]-1,7,7-tri-[methyl] -bicyclo[2.2.1]heptane (E)-2-butenedioate]	7	
CC1(C)[C@@H]2CC[C@@]1(C)[C@@](OCC[N+](C)(C)[O-])(c1ccccc1)C2 [(1R,2S,4R)-(-)-2-[Phenyl]-2-[2'-(dimethylamino)-ethoxy]-1,7,7-tri-[methyl]-bicyclo[2.2.1]heptane-N-oxide (E)-2-butenedioate]	> 100	
CN(C)CCO[C@@]1(c2ccccc2)C[C@@H]2CC[C@@]1(C)C2(C)C.O=C(O)/C=C/C(=O)O [(1S,2R,4S)-(+)-2-[Phenyl] -2-[2'-(dimethylamino)-ethoxy]-1,7,7-tri-[methyl] -bicyclo[2.2.1]heptane (E) -2-butenedioate]	> 100	
CCOc1ccc(/C=C2\NCCc3cc(OCC)c(OCC)cc32)cc1OCC [Drotaverine, 1-[3',4'-di-(Ethoxy)-benzyliden]-6,7-di-[ethaxy]-1,2,3,4-tetra-[hydro]-isoquinoline, reference compound]	> 100	
COc1ccc(Cc2nccc3cc(OC)c(OC)cc23)cc1OC [Papaverine, 1-[3',4'-di-(Methoxy)-benzyl]-6,7-di-[methoxy]-isoquinoline, reference compound]		> 100
